For 8 compounds, IC50 and EC50 results are on record in ChEMBL document CHEMBL3612061, “Imidazopyridines as a source of biological activity and their pharmacological potentials-Infrared and Raman spectroscopic evidence of their content in pharmaceuticals and plant materials” (Bioorg Med Chem, 2015).

The subject of assay [1] is MCF7. As to the kind of experiment: Cytotoxicity against human MCF7 cells. In kind it is functional, cell-based.
The test system of assay [2] is MDA-MB-231. As to the kind of experiment: Cytotoxicity against human MDA-MB-231 cells. In kind it is functional, cell-based.
The nature of assay [3]: Cytotoxicity against human SKBR3 cells. In kind it is functional, cell-based. Particulars: SK-BR-3.
The test system of assay [4] is Vesicular stomatitis virus. As to the kind of experiment: Antiviral activity against Vesicular stomatitis virus assessed as protection against virus-induced cytopathogenic effect by cell based assay. In kind it is functional. Particulars: read-out: ID50 (the source's name). (In general: Damage to the host cells serves as the signal in cytopathic effect assays.)
For assay [5], the system named is Human respirovirus 3. As to the kind of experiment: Antiviral activity against Parainfluenza type 3 assessed as protection against virus-induced cytopathogenic effect by cell based assay. In kind it is functional. Particulars: read-out: ID50 (the source's name).
In assay [6] the test system is Yellow fever virus. As to the kind of experiment: Antiviral activity against Yellow fever virus assessed as protection against virus-induced cytopathogenic effect by cell based assay. In kind it is functional. Particulars: read-out: ID50 (the source's name).
The test system of assay [7] is Cerebral cortex. As to the kind of experiment: Inhibition of GABA uptake in rat cerebral cortex. The format is functional, tissue-based.
For assay [8], the target named is T1, Type-2 angiotensin II receptor (Rattus norvegicus, UniProt P35351).
T1 sequence (P35351 whole entry): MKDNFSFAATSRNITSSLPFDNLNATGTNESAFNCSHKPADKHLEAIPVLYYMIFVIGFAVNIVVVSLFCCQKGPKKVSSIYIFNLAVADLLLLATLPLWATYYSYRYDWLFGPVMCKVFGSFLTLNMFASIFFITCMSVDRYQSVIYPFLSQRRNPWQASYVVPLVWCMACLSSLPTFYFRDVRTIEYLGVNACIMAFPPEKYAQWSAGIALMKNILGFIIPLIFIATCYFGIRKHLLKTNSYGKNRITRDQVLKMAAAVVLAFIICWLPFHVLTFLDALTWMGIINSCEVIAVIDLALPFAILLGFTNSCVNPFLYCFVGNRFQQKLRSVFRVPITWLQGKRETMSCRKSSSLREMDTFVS
As to the kind of experiment: Inhibition of rat AT2 receptor.

Assay [9] has as its system Classical swine fever virus. As to the kind of experiment: Antiviral activity against Classical swine fever virus assessed as protection of viral infection by cell based assay. In kind it is functional.
Assay [10] in a line: Cytotoxicity against mouse leukemia cells. In kind it is functional, cell-based. Particulars: Leukemia cell.

Converted amounts (≈) assume the structure as drawn.

Take `Nc1ncnc2c1ncn2[C@@H]1C=C(CO)[C@@H](O)[C@H]1O` [NEOPLANOCIN A]: the IC50 in assay [1], in [2] and in assay [3] was less than 25 µM each time.

`Nc1nccc2c1ncn2C1C=C(CO)C(O)C1O` (configuration not stated) [3-DEAZANEPLANOCIN A]: the IC50 in assay [1] was less than 0.25 µM; in assay [2], less than 0.25 µM; in assay [3] it was less than 0.25 µM; in assay [4] it was 0.02 µg/mL (≈ 0.0763 µM); in assay [5], 0.02 µg/mL (≈ 0.0763 µM); in assay [6], 0.02 µg/mL (≈ 0.0763 µM).

As for `O=C(O)C1Cc2[nH]cnc2CN1` (configuration not stated), the IC50 in assay [7] came out at 270 µM.

As for `COc1ccc(CN2C=NC3CN(C(=O)C(c4ccccc4)c4ccccc4)C(C(=O)O)CC32)cc1C` (configuration not stated), the IC50 in [8] is 0.034 µM.

For orientation: EC50 means the concentration at which the effect is half-maximal. With `Brc1ccc(Cn2ccc3nc(-c4ccccc4)nc-3c2)cc1`, in assay [9], the concentration for a half-maximal effect (EC50) is 0.8 µM.

Take `OC[C@H]1O[C@@H](n2cnc3c(NO)cc(Cl)nc32)[C@H](O)[C@@H]1O`: the IC50 in assay [10] came out at 0.9 µM.

On to `Nc1nccc2c1ncn2[C@@H]1O[C@H](CO)[C@@H](O)[C@H]1O`, for which the IC50 in [1], in [2] and in [3] was less than 0.1 µM in each case.

In assay [10], `OC[C@H]1O[C@@H](n2cnc3/c(=N\O)[nH]cnc32)[C@H](O)[C@@H]1O` gave an IC50 of 0.9 µM.
